Reference: patent EP0066373A1, “Beta-lactam derivatives, a process for their preparation and compositions containing them” (BEECHAM GROUP PLC, priority 1981, dated 1982)

Tests used:
Assay type in all cases: cell-based
E. coli ESS = assay: Antibacterial activity (MIC); settings: Escherichia coli, Agar
E. coli JT 4 = assay: Antibacterial activity (MIC); settings: Escherichia coli, JT4, Agar
E. coli JT 425 = assay: Antibacterial activity (MIC); settings: Escherichia coli, JT425, Agar
E. coli NCTC 10418 = assay: Antibacterial activity (MIC); settings: Escherichia coli
[1] = tested on: Ps. aeurginosa NCTC 10662; assay: Antibacterial activity (MIC)
[2] = tested on: Ps. aeruginosa NCTC 10662 10^-2; assay: Antibacterial activity (MIC), 10^-2; settings: Pseudomonas aeruginosa
[3] = tested on: Ps. aeruginosa Dalgleish 10^-2; assay: Antibacterial activity (MIC), 10^-2; settings: Pseudomonas aeruginosa, Agar
S. marcescens US 32 = assay: Antibacterial activity (MIC); settings: Serratia marcescens, US32, Agar
K. aerogenes A = assay: Antibacterial activity (MIC); settings: Klebsiella aerogenes
E. cloacae N1 = assay: Antibacterial activity (MIC); settings: Enterobacter cloacae, Agar
P. mirabilis C 977 = assay: Antibacterial activity (MIC); settings: Proteus mirabilis, C977, Agar

SMILES	MIC (E. coli ESS)	MIC (E. coli JT 4)	MIC (E. coli JT 425)	MIC (E. coli NCTC 10418; NCTC10418, Agar)	MIC (E. coli NCTC 10418; NCTC10418, Broth)	MIC ([1]; Agar)	MIC ([1]; Broth)	MIC ([2]; NCTC10662, Agar)	MIC ([2]; NCTC10662, Broth)	MIC [3]	MIC (S. marcescens US 32)	MIC (K. aerogenes A; Agar)	MIC (K. aerogenes A; Broth)	MIC (E. cloacae N1)	MIC (P. mirabilis C 977)
CO[C@@]1(NC(=O)C(c2ccc(OC(C)=O)c(OC(C)=O)c2)S(=O)(=O)O)C(=O)N2[C@@H](C(=O)O)C(C)(C)S[C@@H]21 (stereo partly drawn) [Example 3, Disodium 6,β-[R,S-2-(3,4-diacetoxyphenyl)-2-sulphoacetamido]-6,a-methoxypenicillanate]	0.2 µg/mL	2.5 µg/mL	2.5 µg/mL	2.5 µg/mL	5 µg/mL	2.5 µg/mL	5 µg/mL	2.5 µg/mL	5 µg/mL	2.5 µg/mL	25 µg/mL	10 µg/mL	25 µg/mL	50 µg/mL	25 µg/mL
CO[C@@]1(NC(=O)C(c2ccc(O)c(O)c2)S(=O)(=O)O)C(=O)N2[C@@H](C(=O)O)C(C)(C)S[C@@H]21 (stereo partly drawn) [Example 4, Disodium 6,β-[R,S-2-(3,4-dihydroxyphenyl)-2-sulphoacetamido]-6,a-methoxypenicillanate]	0.5 µg/mL	5 µg/mL	5 µg/mL	5 µg/mL	–	2.5 µg/mL	–	5 µg/mL	–	2.5 µg/mL	25 µg/mL	5 µg/mL	–	50 µg/mL	25 µg/mL
CO[C@@]1(NC(=O)[C@@H](c2ccc(OC(C)=O)c(OC(C)=O)c2)S(=O)(=O)O)C(=O)N2[C@@H](C(=O)O)C(C)(C)S[C@@H]21 [Example 8, Disodium 6,β-[R-2-(3,4-diacetoxyphenyl)-2-sulphoacetamido]-6,a-methoxypenicillanate]	0.2 µg/mL	2.5 µg/mL	1 µg/mL	2.5 µg/mL	5 µg/mL	2.5 µg/mL	1 µg/mL	0.5 µg/mL	0.5 µg/mL	0.5 µg/mL	25 µg/mL	5 µg/mL	10 µg/mL	25 µg/mL	10 µg/mL
CO[C@@]1(NC(=O)[C@@H](c2ccc(O)c(O)c2)S(=O)(=O)O)C(=O)N2[C@@H](C(=O)O)C(C)(C)S[C@@H]21 [Example 9, Disodium 6,β-[R-2-(3,4-dihydroxyphenyl)-2-sulphoacetamido] -6,a-methoxypenicillanate]	0.1 µg/mL	2.5 µg/mL	1 µg/mL	2.5 µg/mL	–	2.5 µg/mL	–	0.5 µg/mL	–	0.5 µg/mL	25 µg/mL	5 µg/mL	–	50 µg/mL	25 µg/mL
